For experiment [1], the system named is CDDP sensitive and resistant human cancer cell lines. To be noted: also CDDP resistant cell lines; cited from earlier work.
For another experiment, the system named is H157. Briefly: MTT cytotoxicity, H157 (lung). It is filed as cell-based, human. To be noted: MTT test, 72 hrs. From the text: (§1) The in vitro antitumor activity of CP had been deeply evaluated in several human cancer cell lines by in vitro cytotoxicity assays. CP cytotoxicity has been detected in a large panel of human cell lines derived from a wide variety of solid tumors, including refractory tumors. In Table 1, the cytotoxicity parameters IC50 (that is the median growth inhibitory concentrations calculated from dose-survival curves via MTT test) are tabulated.
(§2) Cell lines representative of lung (H157, U1810, U1285, Calu-1), pancreas (MIA PaCa-2, BxPC-3, AsPC-1, Capan-1), liver (Huh-7, Hep 3B, SK-Hep-1), oesophagus (OE33, OE21), oesophagus/gastric cardia (OE19), stomach (BGC-823, AGS), colon (HCT-116, T84, COLO 205), breast (MDA-MB-231, SK-BR-3), cervix (CaSki, C-33 A) ovarian (A2780, SK-OV-3, IGROV1), prostate (LnCaP, PC-3) cancers along with melanoma (MEWO, G361, C-32), neuroblastoma (SH-SY5Y, SK-N-AS, IMR-32) and osteosarcoma (U-2 OS, MG-63) have been treated with increasing concentration of CP for 72 hrs.
Background: Tetrazolium dyes change colour on reduction, which living cells bring about.

The next experiment deals with Calu-1. Briefly: MTT cytotoxicity, Calu-1 (lung). To be noted: MTT test, 72 hrs. The class given is cell-based, human.
Excerpt: as §1, §2

A further experiment deals with MIA PaCa-2. Kind of experiment: MTT cytotoxicity, MIA PaCa-2 (pancreas). The class given is cell-based, human. To be noted: MTT test, 72 hrs.
Excerpt: as §1, §2

The subject of a further experiment is BxPC-3. Briefly: MTT cytotoxicity, BxPC-3 (pancreas). To be noted: MTT test, 72 hrs. It is filed as cell-based, human.
Excerpt: as §1, §2

For a further experiment, the system named is AsPC-1. Briefly: MTT cytotoxicity, AsPC-1 (pancreas). It is filed as cell-based, human. To be noted: MTT test, 72 hrs.
Excerpt: as §1, §2

Another experiment relates to Capan-1. Briefly: MTT cytotoxicity, Capan-1 (pancreas). The class given is cell-based, human. The note with it: MTT test, 72 hrs.
Excerpt: as §1, §2

A further experiment has as its system Huh-7. Briefly: MTT cytotoxicity, Huh-7 (liver). The class given is cell-based, human. The note with it: MTT test, 72 hrs.
Excerpt: as §1, §2

In a further experiment the test system is Hep 3B. Kind of experiment: MTT cytotoxicity, Hep 3B (liver). To be noted: MTT test, 72 hrs. The class given is cell-based, human.
Excerpt: as §1, §2

A further experiment relates to SK-Hep-1. Kind of experiment: MTT cytotoxicity, SK-Hep-1 (liver). It is filed as cell-based, human. The note with it: MTT test, 72 hrs.
Excerpt: as §1, §2

For the next experiment, the system named is OE19. Kind of experiment: MTT cytotoxicity, OE19 (oesophagus/gastric cardia). The class given is cell-based, human. The note with it: MTT test, 72 hrs.
Excerpt: as §1, §2

The test system of another experiment is AGS. Briefly: MTT cytotoxicity, AGS (stomach). It is filed as cell-based, human. To be noted: MTT test, 72 hrs.
Excerpt: as §1, §2

For a further experiment, the system named is HCT-116. Kind of experiment: MTT cytotoxicity, HCT-116 (colon). The class given is cell-based, human. The note with it: MTT test, 72 hrs.
Excerpt: as §1, §2

A further experiment has as its system T84. Kind of experiment: MTT cytotoxicity, T84 (colon). The class given is cell-based, human. To be noted: MTT test, 72 hrs.
Excerpt: as §1, §2

The next experiment relates to COLO 205. Briefly: MTT cytotoxicity, COLO 205 (colon). The class given is cell-based, human. The note with it: MTT test, 72 hrs.
Excerpt: as §1, §2

A further experiment has as its system MEWO. Briefly: MTT cytotoxicity, MEWO (skin). It is filed as cell-based, human. The note with it: MTT test, 72 hrs.
Excerpt: as §1, §2

The next experiment relates to G361. Kind of experiment: MTT cytotoxicity, G361 (skin). The class given is cell-based, human. The note with it: MTT test, 72 hrs.
Excerpt: as §1, §2

In a further experiment the test system is C-32. Kind of experiment: MTT cytotoxicity, C-32 (skin). It is filed as cell-based, human. The note with it: MTT test, 72 hrs.
Excerpt: as §1, §2

The subject of another experiment is U-2 OS. Kind of experiment: MTT cytotoxicity, U-2 OS (bone). To be noted: MTT test, 72 hrs. The class given is cell-based, human.
Excerpt: as §1, §2

For a further experiment, the system named is MDA-MB-231. Kind of experiment: MTT cytotoxicity, MDA-MB-231 (breast). It is filed as cell-based, human. To be noted: MTT test, 72 hrs.
Excerpt: as §1, §2

Another experiment has as its system SK-BR-3. Briefly: MTT cytotoxicity, SK-BR-3 (breast). The class given is cell-based, human. The note with it: MTT test, 72 hrs.
Excerpt: as §1, §2

The subject of the next experiment is CaSki. Briefly: MTT cytotoxicity, CaSki (cervix). It is filed as cell-based, human. To be noted: MTT test, 72 hrs.
Excerpt: as §1, §2

The subject of the next experiment is A2780. Briefly: MTT cytotoxicity, A2780 (ovary). It is filed as cell-based, human. The note with it: MTT test, 72 hrs.
Excerpt: as §1, §2

A further experiment has as its system SK-OV-3. Briefly: MTT cytotoxicity, SK-OV-3 (ovary). It is filed as cell-based, human. To be noted: MTT test, 72 hrs.
Excerpt: as §1, §2

Another experiment relates to IGROV1. Briefly: MTT cytotoxicity, IGROV1 (ovary). The class given is cell-based, human. The note with it: MTT test, 72 hrs.
Excerpt: as §1, §2

A further experiment deals with PC-3. Kind of experiment: MTT cytotoxicity, PC-3 (prostate). The note with it: MTT test, 72 hrs. It is filed as cell-based, human.
Excerpt: as §1, §2

For experiment [2], the system named is human colon adenocarcinoma cells sensitive (HCT-116). Kind of experiment: Cross resistance MTT test, HCT-116 (OXP sensitive). It is filed as cell-based. To be noted: 72 h, probit analysis.
Experiment [3] concerns human lung (MRC-5) fibroblasts. Kind of experiment: Cytotoxicity towards human non-tumor cells, MRC-5. The class given is cell-based. The note with it: MRC-5 human lung fibroblasts (non-tumor); MTT test, 72 hrs.
For experiment [4], the system named is human foreskin (HFFF2) fibroblasts. Kind of experiment: Cytotoxicity towards human non-tumor cells, HFFF2. To be noted: MTT test, 72 hrs. The class given is cell-based.
Experiment [5] has as its system human colon adenocarcinoma cells resistant (HCT-116 OXP) to OXP.

Take `Cc1cc(C)n(C(C(=O)[O][Cu]([PH](CO)(CO)CO)[PH](CO)(CO)CO)n2nc(C)cc2C)n1` [[HC(CO2)(pz^Me2)2]Cu[P(CH2OH)3]2]: in [1], the “antitumor activity in vitro” value is listed as “significant antitumor activity in vitro”.
By IC50 is commonly meant the point on the concentration scale where inhibition reaches its midpoint. Higher therefore signals a need for much substance. `O=C1[O][Pt]2([NH][C@@H]3CCCC[C@H]3[NH]2)[O]C1=O` [OXP, oxaliplatin]: the IC50 with H157 was determined as 25.3 ± 0.52 µM; with Calu-1, 4.23 ± 1.53 µM; with MIA PaCa-2 it was 16.8 ± 1.89 µM; with BxPC-3 it was 4.15 ± 1.06 µM; in the experiment with AsPC-1 it was 23.2 ± 2.64 µM; in the experiment on Capan-1, 3.17 ± 0.97 µM. Also, the IC50 was determined as 1.12 ± 1.05 µM in the experiment on Huh-7; 4.32 ± 1.33 µM in the experiment with Hep 3B; 17.8 ± 2.63 µM with SK-Hep-1; 8.76 ± 1.51 µM with OE19; 5.32 ± 1.63 µM in the experiment on AGS; 0.76 ± 0.58 µM in the experiment with HCT-116. Further, the IC50 is 0.33 ± 0.09 µM in the experiment with T84; 21.1 ± 2.66 µM in the experiment with COLO 205; 6.43 ± 1.54 µM in the experiment with MEWO; 1.14 ± 0.31 µM in the experiment with G361; 1.12 ± 0.42 µM in the experiment on C-32; 0.72 ± 0.24 µM in the experiment with U-2 OS. In addition, the half-inhibitory concentration (IC50) was 4.35 ± 1.07 µM in the experiment with MDA-MB-231; 8.98 ± 2.64 µM in the experiment on SK-BR-3; 26.1 ± 3.01 µM in the experiment with CaSki; 0.55 ± 0.22 µM in the experiment with A2780; 1.43 ± 1.03 µM with SK-OV-3; 2.56 ± 2.14 µM in the experiment on IGROV1. Also, the IC50 in the experiment with PC-3 turned out to be 5.23 ± 1.62 µM; in experiment [2] it was 1.2 ± 0.1 µM; in experiment [3], 23.1 ± 1.25 µM; in experiment [4], 25.5 ± 1.65 µM; in [5] (HCT-116 OXP (OXP resistant), MTT test, 72 h, probit analysis), 23.3 ± 1 µM. Further, in experiment [5] (IC50 resistant/parent line: HCT-116 OXP / HCT-116), the “R.F. (Resistant factor)” value is 19.4.

The values are drawn from patent US9114149B2, “[CU(thp)4]n[X]-n compounds for the treatment of a broad range of human solid tumors, including refractory tumors” (Universita Degli Studi Di Padova, priority 2011, dated 2015).
